# PMC10362319 (Toxicon: X, 2023)
# How the values were obtained:
# [1] = HLM incubation, decreasing thereafter
# [2] = BTX-2 5 μM, 60 min incubations with HLM and fish microsomes
# [3] = GSH conjugation of BTX-2 with deactivated RSN2 microsomes and 100 μM GSH; format: in vitro ADME, Lutjanus campechanus
# [4] = Chemical GSH conjugation of BTX-2 without microsomes; format: physicochemical
# [5] = GSH conjugation of BTX-2 with active RSN2 microsomes and 100 μM GSH; format: in vitro ADME, Lutjanus campechanus
# [6] = RSN1 control without NADPH regeneration system
substance,measurement,setting,value
"41,43-dihydro-BTX-2 [Compound 2b]",time at which the metabolite reached a maximum,[1],about 15 min
"41,43-dihydro-BTX-B5 [Compound 5d]",occurrence of the metabolite across microsomal incubations,[2],only produced by HLM
"41,43-dihydro-BTX-B5 [Compound 5e]",occurrence of the metabolite across microsomal incubations,[2],only produced by HLM
A-ring hydrolyzed BTX-3 [Compound 6a],occurrence of the metabolite across microsomal incubations,[2],produced in all fish microsomes and in HLM
BTX-2-GSH [Compound 12],formation rate of BTX-2-GSH,[3],0.46 min⁻¹
same,formation rate of BTX-2-GSH,[4],0.46 min⁻¹
same,formation rate of BTX-2-GSH,[5],0.18 min⁻¹
BTX-9 [Compound 3],metabolite formation where the NADPH regeneration system was excluded,[6],not formed
Hydroxyl BTX-2 (rings A-E) [Compound 4b],occurrence of the metabolite across microsomal incubations,[2],occurred mainly in the two Lutjanid species
